According to patent US7381521B2, “Anti-pathogenic composition useful in blood preservation” (Altachem Pharma Ltd., priority 2001, dated 2008):

What was measured:
S. aureus ATCC 6538 = assay: Test 2 (DGHM), action as a function of disinfection time at 22° C., 8 × 10^8 organisms/ml; assay type: cell-based, Staphylococcus aureus
Description: (§1) Another test was carried out a basis of the following solutions • 100 ml of a 0.1% solution of chlorohexidine digluconate (pH 6); and • 100 ml of a 0.1% solution of Bardac22®.
(§2) The activity of these solutions, alone or in combination, was more particularly tested in respect of Staphylococcus aureus ATCC 6538, Escherichia coli ATCC 11229 and Candida albicans ATCC 10231.
(§3) The tests were conducted in accordance with the procedure described in Chapter I/2.1 and 2.2 of Tichtlinien für die Prüfung und Bewertung chemischer Desinfektionsverfahren der DGHM/Guidelines for Testing and Evaluating Chemical Disinfection Processes of DGHM as at 1.1, 1981.

E. coli ATCC 11229 [1] = assay: Test 2 (DGHM), action as a function of disinfection time at 22° C., 2 × 10^9 organisms/ml; assay type: cell-based, Escherichia coli
Description: as §1, §2, §3

[2] = tested on: Candida albicans ATCC 1031; assay: Test 2 (DGHM), growth inhibition by dilutions, 72 hours at 37° C.; assay type: cell-based
Description: as §1, §2, §3
(§4) Tables IX, X and XI respectively illustrate the bactericidal and fungicidal activity of a 0.1% aqueous solution of chlorohexidine digluconate, a 0.1% aqueous solution of Bardac22® and a mixture of equal parts of both compounds. The procedures of which these Tables illustrate the results comprise incubation of 72 hours at 37° C. and the use of the following inactivating substances as controls: • A: 3% Tween®80+0.3% lecithin+0.1% cysteine • B: 3% Tween®80+3% saponin+0.1% cysteine+0.1% histidine; • C: 3% Tween®80+0.3% lecithin+0.1% histidine+0.5% sodium thiosulphate.
(§5) In these Tables, the sign “+” indicates an increase and the sign “−” denotes the absence of growth.

E. coli ATCC 11229 [3] = assay: as above; assay type: cell-based, Escherichia coli
Description: as §1, §2, §3, §4, §5

[4] = 0.00625% vol/vol, inactivator A
[5] = 0.00625% vol/vol, inactivator B
[6] = 0.00625% vol/vol, inactivator C
[7] = 0.00625% vol/vol, no inactivator
[8] = 0.0125% vol/vol, no inactivator

CCCCCCCCCC[N+](C)(C)CCCCCCCCCC.[Cl-] [Bardac ®, didecyl dimethyl ammonium chloride]
growth (S. aureus ATCC 6538; 0.05% vol/vol, 1 min): +
growth (S. aureus ATCC 6538; 0.05% vol/vol, 3 min): +
growth (S. aureus ATCC 6538; 0.05% vol/vol, 5 min): +
growth (S. aureus ATCC 6538; 0.05% vol/vol, 15 min): +
growth (S. aureus ATCC 6538; 0.05% vol/vol, 30 min): +
growth (S. aureus ATCC 6538; 0.05% vol/vol, 60 min): +
growth (S. aureus ATCC 6538; 0.1% vol/vol, 1 min): +
growth (S. aureus ATCC 6538; 0.1% vol/vol, 3 min): +
growth (S. aureus ATCC 6538; 0.1% vol/vol, 5 min): +
growth (S. aureus ATCC 6538; 0.1% vol/vol, 15 min): +
growth (S. aureus ATCC 6538; 0.1% vol/vol, 30 min): +
growth (S. aureus ATCC 6538; 0.1% vol/vol, 60 min): +
growth (S. aureus ATCC 6538; 0.5% vol/vol, 1 min): +
growth (S. aureus ATCC 6538; 0.5% vol/vol, 3 min): +
growth (S. aureus ATCC 6538; 0.5% vol/vol, 5 min): +
growth (S. aureus ATCC 6538; 0.5% vol/vol, 15 min): +
growth (S. aureus ATCC 6538; 0.5% vol/vol, 30 min): +
growth (S. aureus ATCC 6538; 0.5% vol/vol, 60 min): +
growth (S. aureus ATCC 6538; 1% vol/vol, 1 min): +
growth (S. aureus ATCC 6538; 1% vol/vol, 3 min): +
growth (S. aureus ATCC 6538; 1% vol/vol, 5 min): +
growth (S. aureus ATCC 6538; 1% vol/vol, 15 min): +
growth (S. aureus ATCC 6538; 1% vol/vol, 30 min): −
growth (S. aureus ATCC 6538; 1% vol/vol, 60 min): −
growth (S. aureus ATCC 6538; 5% vol/vol, 1 min): +
growth (S. aureus ATCC 6538; 5% vol/vol, 3 min): +
growth (S. aureus ATCC 6538; 5% vol/vol, 5 min): +
growth (S. aureus ATCC 6538; 5% vol/vol, 15 min): −
growth (S. aureus ATCC 6538; 5% vol/vol, 30 min): −
growth (S. aureus ATCC 6538; 5% vol/vol, 60 min): −
growth (S. aureus ATCC 6538; 10% vol/vol, 1 min): +
growth (S. aureus ATCC 6538; 10% vol/vol, 3 min): −
growth (S. aureus ATCC 6538; 10% vol/vol, 5 min): −
growth (S. aureus ATCC 6538; 10% vol/vol, 15 min): −
growth (S. aureus ATCC 6538; 10% vol/vol, 30 min): −
growth (S. aureus ATCC 6538; 10% vol/vol, 60 min): −
growth (S. aureus ATCC 6538; 25% vol/vol, 1 min): +
growth (S. aureus ATCC 6538; 25% vol/vol, 3 min): −
growth (S. aureus ATCC 6538; 25% vol/vol, 5 min): −
growth (S. aureus ATCC 6538; 25% vol/vol, 15 min): −
growth (S. aureus ATCC 6538; 25% vol/vol, 30 min): −
growth (S. aureus ATCC 6538; 25% vol/vol, 60 min): −
growth (E. coli ATCC 11229 [1]; 0.05% vol/vol, 1 min): +
growth (E. coli ATCC 11229 [1]; 0.05% vol/vol, 3 min): +
growth (E. coli ATCC 11229 [1]; 0.05% vol/vol, 5 min): +
growth (E. coli ATCC 11229 [1]; 0.05% vol/vol, 15 min): +
growth (E. coli ATCC 11229 [1]; 0.05% vol/vol, 30 min): +
growth (E. coli ATCC 11229 [1]; 0.05% vol/vol, 60 min): +
growth (E. coli ATCC 11229 [1]; 0.1% vol/vol, 1 min): +
growth (E. coli ATCC 11229 [1]; 0.1% vol/vol, 3 min): +
growth (E. coli ATCC 11229 [1]; 0.1% vol/vol, 5 min): +
growth (E. coli ATCC 11229 [1]; 0.1% vol/vol, 15 min): +
growth (E. coli ATCC 11229 [1]; 0.1% vol/vol, 30 min): +
growth (E. coli ATCC 11229 [1]; 0.1% vol/vol, 60 min): +
growth (E. coli ATCC 11229 [1]; 0.5% vol/vol, 1 min): +
growth (E. coli ATCC 11229 [1]; 0.5% vol/vol, 3 min): +
growth (E. coli ATCC 11229 [1]; 0.5% vol/vol, 5 min): +
growth (E. coli ATCC 11229 [1]; 0.5% vol/vol, 15 min): +
growth (E. coli ATCC 11229 [1]; 0.5% vol/vol, 30 min): +
growth (E. coli ATCC 11229 [1]; 0.5% vol/vol, 60 min): +
growth (E. coli ATCC 11229 [1]; 1% vol/vol, 1 min): +
growth (E. coli ATCC 11229 [1]; 1% vol/vol, 3 min): +
growth (E. coli ATCC 11229 [1]; 1% vol/vol, 5 min): +
growth (E. coli ATCC 11229 [1]; 1% vol/vol, 15 min): +
growth (E. coli ATCC 11229 [1]; 1% vol/vol, 30 min): +
growth (E. coli ATCC 11229 [1]; 1% vol/vol, 60 min): +
growth (E. coli ATCC 11229 [1]; 5% vol/vol, 1 min): +
growth (E. coli ATCC 11229 [1]; 5% vol/vol, 3 min): +
growth (E. coli ATCC 11229 [1]; 5% vol/vol, 5 min): +
growth (E. coli ATCC 11229 [1]; 5% vol/vol, 15 min): −
growth (E. coli ATCC 11229 [1]; 5% vol/vol, 30 min): −
growth (E. coli ATCC 11229 [1]; 5% vol/vol, 60 min): −
growth (E. coli ATCC 11229 [1]; 10% vol/vol, 1 min): +
growth (E. coli ATCC 11229 [1]; 10% vol/vol, 3 min): +
growth (E. coli ATCC 11229 [1]; 10% vol/vol, 5 min): −
growth (E. coli ATCC 11229 [1]; 10% vol/vol, 15 min): −
growth (E. coli ATCC 11229 [1]; 10% vol/vol, 30 min): −
growth (E. coli ATCC 11229 [1]; 10% vol/vol, 60 min): −
growth (E. coli ATCC 11229 [1]; 25% vol/vol, 1 min): −
growth (E. coli ATCC 11229 [1]; 25% vol/vol, 3 min): −
growth (E. coli ATCC 11229 [1]; 25% vol/vol, 5 min): −
growth (E. coli ATCC 11229 [1]; 25% vol/vol, 15 min): −
growth (E. coli ATCC 11229 [1]; 25% vol/vol, 30 min): −
growth (E. coli ATCC 11229 [1]; 25% vol/vol, 60 min): −
concentration of active substance inhibiting growth [2]: 0.0001%
dilution of the 0.1% solution inhibiting growth [2]: 0.1%
growth [2, 4]: +
growth [2, 5]: +
growth [2, 6]: +
growth [2, 7]: +
growth ([2]; 0.0125% vol/vol, inactivator A): +
growth ([2]; 0.0125% vol/vol, inactivator B): +
growth ([2]; 0.0125% vol/vol, inactivator C): +
growth [2, 8]: +
growth ([2]; 0.025% vol/vol, inactivator A): +
growth ([2]; 0.025% vol/vol, inactivator B): +
growth ([2]; 0.025% vol/vol, inactivator C): +
growth ([2]; 0.025% vol/vol, no inactivator): +
growth ([2]; 0.05% vol/vol, inactivator A): +
growth ([2]; 0.05% vol/vol, inactivator B): +
growth ([2]; 0.05% vol/vol, inactivator C): +
growth ([2]; 0.05% vol/vol, no inactivator): +
growth ([2]; 0.1% vol/vol, inactivator A): +
growth ([2]; 0.1% vol/vol, inactivator B): +
growth ([2]; 0.1% vol/vol, inactivator C): +
growth ([2]; 0.1% vol/vol, no inactivator): −
growth ([2]; 0.5% vol/vol, inactivator A): +
growth ([2]; 0.5% vol/vol, inactivator B): +
growth ([2]; 0.5% vol/vol, inactivator C): +
growth ([2]; 0.5% vol/vol, no inactivator): −
growth ([2]; 1.0% vol/vol, inactivator A): +
growth ([2]; 1.0% vol/vol, inactivator B): +
growth ([2]; 1.0% vol/vol, inactivator C): +
growth ([2]; 1.0% vol/vol, no inactivator): −
concentration of active substance inhibiting growth (E. coli ATCC 11229 [3]): 0.0005%
dilution of the 0.1% solution inhibiting growth (E. coli ATCC 11229 [3]): 0.5%
growth (E. coli ATCC 11229 [3]; [4]): +
growth (E. coli ATCC 11229 [3]; [5]): +
growth (E. coli ATCC 11229 [3]; [6]): +
growth (E. coli ATCC 11229 [3]; [7]): +
growth (E. coli ATCC 11229 [3]; 0.0125% vol/vol, inactivator A): +
growth (E. coli ATCC 11229 [3]; 0.0125% vol/vol, inactivator B): +
growth (E. coli ATCC 11229 [3]; 0.0125% vol/vol, inactivator C): +
growth (E. coli ATCC 11229 [3]; [8]): +
growth (E. coli ATCC 11229 [3]; 0.025% vol/vol, inactivator A): +
growth (E. coli ATCC 11229 [3]; 0.025% vol/vol, inactivator B): +
growth (E. coli ATCC 11229 [3]; 0.025% vol/vol, inactivator C): +
growth (E. coli ATCC 11229 [3]; 0.025% vol/vol, no inactivator): +
growth (E. coli ATCC 11229 [3]; 0.05% vol/vol, inactivator A): +
growth (E. coli ATCC 11229 [3]; 0.05% vol/vol, inactivator B): +
growth (E. coli ATCC 11229 [3]; 0.05% vol/vol, inactivator C): +
growth (E. coli ATCC 11229 [3]; 0.05% vol/vol, no inactivator): +
growth (E. coli ATCC 11229 [3]; 0.1% vol/vol, inactivator A): +
growth (E. coli ATCC 11229 [3]; 0.1% vol/vol, inactivator B): +
growth (E. coli ATCC 11229 [3]; 0.1% vol/vol, inactivator C): +
growth (E. coli ATCC 11229 [3]; 0.1% vol/vol, no inactivator): +
growth (E. coli ATCC 11229 [3]; 0.5% vol/vol, inactivator A): +
growth (E. coli ATCC 11229 [3]; 0.5% vol/vol, inactivator B): +
growth (E. coli ATCC 11229 [3]; 0.5% vol/vol, inactivator C): +
growth (E. coli ATCC 11229 [3]; 0.5% vol/vol, no inactivator): −
growth (E. coli ATCC 11229 [3]; 1.0% vol/vol, inactivator A): +
growth (E. coli ATCC 11229 [3]; 1.0% vol/vol, inactivator B): +
growth (E. coli ATCC 11229 [3]; 1.0% vol/vol, inactivator C): +
growth (E. coli ATCC 11229 [3]; 1.0% vol/vol, no inactivator): −
